Experimental findings from patent publication US10407410B2, “Pyridin-3-yl acetic acid derivatives as inhibitors of human immunodeficiency virus replication” (priority 2016, dated 2019) are described below.

This assay deals with NL-RLuc virus (HIV). The assay can be described thus: Inhibition of HIV replication (NL-RLuc luciferase reporter virus in MT-2 cells). To be noted: Human immunodeficiency virus 1, MT2, 120 h. The assay is classed as cell-based. From the text:
Inhibition of HIV Replication
A recombinant NL-RLuc proviral clone was constructed in which a section of the nef gene from NL4-3 was replaced with the Renilla Luciferase gene. This virus is fully infectious and can undergo multiple cycles of replication in cell culture. In addition, the luciferous reporter provides a simple and easy method for quantitating the extent of virus growth and consequently, the antiviral activity of test compounds. The plasmid pNLRLuc contains the proviral NL-Rluc DNA cloned into pUC18 at the PvuII site. The NL-RLuc virus was prepared by transfection of 293T cells with the plasmid pNLRLuc. Transfections were performed using the LipofectAMINE PLUS kit from Invitrogen (Carlsbad, Calif.) according to the manufacturer and the virus generated was titered in MT-2 cells. For susceptibility analyses, the titrated virus was used to infect MT-2 cells in the presence of compound, and after 5 days of incubation, cells were processed and quantitated for virus growth by the amount of expressed luciferase. Assay media was RPMI 1640 supplemented with 10% heat inactivated fetal bovine serum (FBS), 100 units/ml penicillin G/100 units/ml streptomycin, 10 mM HEPES buffer pH 7.55 and 2 mM L-glutamine. The results from at least 2 experiments were used to calculate the EC50 values. Luciferase was quantitated using the Dual Luciferase kit from Promega (Madison, Wis.). Susceptibility of viruses to compounds was determined by incubation in the presence of serial dilutions of the compound. The 50% effective concentration (EC50) was calculated by using the exponential form of the median effect equation where (Fa)=1/[1+(ED50/drug conc.)^m] (Johnson V A, Byington R T. Infectivity Assay. In Techniques in HIV Research. ed. Aldovini A, Walker B D. 71-76. New York: Stockton Press. 1990).
Consider `Cc1nc(C)c([C@H](OC(C)(C)C)C(=O)O)c(N2CCC(C)(C)CC2)c1-c1ccc2c(c1)C(=O)C(Cc1ccc(F)cc1)(Cc1ccc(F)cc1)C(=O)N2` [Example 19, (S)-2-(5-(3,3-bis(4-fluorobenzyl)-2,4-dioxo-1,2,3,4-tetrahydroquinolin-6-yl)-4-(4,4-dimethylpiperidin-1-yl)-2,6-dimethylpyridin-3-yl)-2-(tert-butoxy)acetic acid], for which the 50% effective concentration (EC50) was 240 nM.
With `Cc1nc(CO)c(-c2ccc3c(c2)CC[C@@H](Cc2ccccc2)O3)c(N2CCC(C)(C)CC2)c1[C@H](OC(C)(C)C)C(=O)O` [Example 33, (S)-2-(5-((S)-2-Benzylchroman-6-yl)-4-(4,4-dimethylpiperidin-1-yl)-6-(hydroxymethyl)-2-methylpyridin-3-yl)-2-tert-butoxyacetic acid] the figure was 7 nM; with `Cc1nc(C)c([C@H](OC(C)(C)C)C(=O)O)c(N2CCC(C)(C)CC2)c1-c1ccc2c(c1)CC[C@H](Cc1ccc(F)c(F)c1)O2` [Example 29, (S)-2-tert-Butoxy-2-(5-((R)-2-(3,4-difluorobenzyl)chroman-6-yl)-4-(4,4-dimethylpiperidin-1-yl)-2,6-dimethylpyridin-3-yl)acetic acid], 5 nM.
For `Cc1nc(C)c([C@H](OC(C)(C)C)C(=O)O)c(N2CCC(C)(C)CC2)c1-c1ccc2c(c1)CCC(Oc1ccc(F)cc1)C2` (stereo partly drawn) [Example 27, (2S)-2-(tert-Butoxy)-2-(4-(4,4-dimethylpiperidin-1-yl)-5-(6-(4-fluorophenoxy)-5,6,7,8-tetrahydronaphthalen-2-yl)-2,6-dimethylpyridin-3-yl)acetic acid], the EC50 turned out to be 6 nM.
With `Cc1nc(C)c([C@H](OC(C)(C)C)C(=O)O)c(N2CCC(C)(C)CC2)c1-c1ccc2c(c1)CCC(Cc1ccc(F)cc1)C2` (stereo partly drawn) [Example 26, (2S)-2-(tert-Butoxy)-2-(4-(4,4-dimethylpiperidin-1-yl)-5-(6-(4-fluorobenzyl)-5,6,7,8-tetrahydronaphthalen-2-yl)-2,6-dimethylpyridin-3-yl)acetic acid] the figure was 10 nM; with `Cc1nc(C)c([C@H](OC(C)(C)C)C(=O)O)c(N2CCC(C)(C)CC2)c1-c1ccc2c(c1)CC[C@@H](Cc1ccccc1)O2` [Example 32, (S)-2-(5-((S)-2-Benzylchroman-6-yl)-4-(4,4-dimethylpiperidin-1-yl)-2,6-dimethylpyridin-3-yl)-2-tert-butoxyacetic acid], 2 nM; with `Cc1nc(C)c([C@H](OC(C)(C)C)C(=O)O)c(N2CCC(C)(C)CC2)c1-c1ccc2ccncc2c1` [Example 1, (S)-2-(tert-Butoxy)-2-(4-(4,4-dimethylpiperidin-1-yl)-5-(isoquinolin-7-yl)-2,6-dimethylpyridin-3-yl)acetic acid], 47 nM.
In turn, `Cc1nc(C)c([C@H](OC(C)(C)C)C(=O)O)c(N2CCC(C)(C)CC2)c1-c1ccc2c(c1)CCNC2=O` [Example 10, (S)-2-(tert-butoxy)-2-(4-(4,4-dimethylpiperidin-1-yl)-2,6-dimethyl-5-(1-oxo-1,2,3,4-tetrahydroisoquinolin-6-yl)pyridin-3-yl)acetic acid] returned a concentration for a half-maximal effect (EC50) of 307 nM.
Next, `Cc1nc(CO)c(-c2ccc3c(c2)CC[C@@H](Cc2ccc(F)cc2)O3)c(N2CCC(C)(C)CC2)c1[C@H](OC(C)(C)C)C(=O)O` [Example 36, (S)-2-(tert-Butoxy)-2-(4-(4,4-dimethylpiperidin-1-yl)-5-((S)-2-(4-fluorobenzyl)chroman-6-yl)-6-(hydroxymethyl)-2-methylpyridin-3-yl)acetic acid]: 2 nM; `Cc1nc(C)c([C@H](OC(C)(C)C)C(=O)O)c(N2CCC(C)(C)CC2)c1-c1ccc2cc[nH]c2c1` [Example 4, (S)-2-(tert-butoxy)-2-(4-(4,4-dimethylpiperidin-1-yl)-5-(1H-indol-6-yl)-2,6-dimethylpyridin-3-yl)acetic acid]: 233 nM; `Cc1nc(CO)c(-c2ccc3c(c2)CC[C@H](Cc2ccc(F)cc2)O3)c(N2CCC(C)(C)CC2)c1[C@H](OC(C)(C)C)C(=O)O` [Example 37, (S)-2-tert-Butoxy-2-(4-(4,4-dimethylpiperidin-1-yl)-5-((R)-2-(4-fluorobenzyl)chroman-6-yl)-6-(hydroxymethyl)-2-methylpyridin-3-yl)acetic acid]: 1 nM.
Next, `CCOc1ccc(S(=O)(=O)N2Cc3ccc(-c4c(C)nc(C)c([C@H](OC(C)(C)C)C(=O)O)c4N4CCC(C)(C)CC4)cc3C2)cc1` [Example 23, (S)-2-(tert-butoxy)-2-(4-(4,4-dimethylpiperidin-1-yl)-5-(2-((4-ethoxyphenyl)sulfonyl)isoindolin-5-yl)-2,6-dimethylpyridin-3-yl)acetic acid]: 17 nM; `COc1ccc(S(=O)(=O)N2Cc3ccc(-c4c(C)nc(C)c([C@H](OC(C)(C)C)C(=O)O)c4N4CCC(C)(C)CC4)cc3C2)cc1` [Example 24, (S)-2-(tert-butoxy)-2-(4-(4,4-dimethylpiperidin-1-yl)-5-(2-((4-methoxyphenyl)sulfonyl)isoindolin-5-yl)-2,6-dimethylpyridin-3-yl)acetic acid]: 10 nM.
Next, `Cc1ncsc1CN1CCc2cc(-c3c(C)nc(C)c([C@H](OC(C)(C)C)C(=O)O)c3N3CCC(C)(C)CC3)ccc2C1=O` [Example 16, (S)-2-(tert-butoxy)-2-(4-(4,4-dimethylpiperidin-1-yl)-2,6-dimethyl-5-(2-((4-methylthiazol-5-yl)methyl)-1-oxo-1,2,3,4-tetrahydroisoquinolin-6-yl)pyridin-3-yl)acetic acid]: 6 nM.
In turn, `Cc1nc(C)c([C@H](OC(C)(C)C)C(=O)O)c(N2CCC(C)(C)CC2)c1-c1ccc2c(c1)c(OCc1ccc(F)cc1)cc(=O)n2C` [Example 20, (S)-2-(tert-butoxy)-2-(4-(4,4-dimethylpiperidin-1-yl)-5-(4-((4-fluorobenzyl)oxy)-1-methyl-2-oxo-1,2-dihydroquinolin-6-yl)-2,6-dimethylpyridin-3-yl)acetic acid] had an EC50 of 87 nM.
The compound `Cc1nc(C)c([C@H](OC(C)(C)C)C(=O)O)c(N2CCC(C)(C)CC2)c1-c1ccc2c(c1)OCCN2C` [Example 9, (S)-2-(tert-butoxy)-2-(4-(4,4-dimethylpiperidin-1-yl)-2,6-dimethyl-5-(4-methyl-3,4-dihydro-2H-benzo[b][1,4]oxazin-7-yl)pyridin-3-yl)acetic acid] yielded a concentration for a half-maximal effect (EC50) of 87 nM.
`Cc1nc(C)c([C@H](OC(C)(C)C)C(=O)O)c(N2CCC(C)(C)CC2)c1-c1ccc2c(c1)CCC2` [Example 5, (S)-2-(tert-butoxy)-2-(5-(2,3-dihydro-1H-inden-5-yl)-4-(4,4-dimethylpiperidin-1-yl)-2,6-dimethylpyridin-3-yl)acetic acid] displayed an EC50 of 56 nM.
As for `Cc1nc(C)c([C@H](OC(C)(C)C)C(=O)O)c(N2CCC(C)(C)CC2)c1-c1ccc2c(c1)CCC(COc1ccccc1F)O2` (stereo partly drawn) [Example 40, (2S)-2-tert-Butoxy-2-(4-(4,4-dimethylpiperidin-1-yl)-5-(2-((2-fluorophenoxy)methyl)chroman-6-yl)-2,6-dimethylpyridin-3-yl)acetic acid], the response was half-maximal at 4 nM (EC50).
As to `Cc1nc(C)c([C@H](OC(C)(C)C)C(=O)O)c(N2CCC(C)(C)CC2)c1-c1ccc2c(c1)CC/C(=C\c1ccc(F)cc1)C2` [Example 25, (S,E)-2-(tert-Butoxy)-2-(4-(4,4-dimethylpiperidin-1-yl)-5-(6-(4-fluorobenzylidene)-5,6,7,8-tetrahydronaphthalen-2-yl)-2,6-dimethylpyridin-3-yl)acetic acid], it took 5 nM to reach a half-maximal effect (EC50).
`Cc1nc(C)c([C@H](OC(C)(C)C)C(=O)O)c(N2CCC(C)(C)CC2)c1-c1ccc2c(c1)CCN(Cc1nccs1)C2=O` [Example 15, (S)-2-(tert-butoxy)-2-(4-(4,4-dimethylpiperidin-1-yl)-2,6-dimethyl-5-(1-oxo-2-(thiazol-2-ylmethyl)-1,2,3,4-tetrahydroisoquinolin-6-yl)pyridin-3-yl)acetic acid]: the EC50 is 14 nM.
`Cc1nc(C)c([C@H](OC(C)(C)C)C(=O)O)c(N2CCC(C)(C)CC2)c1-c1ccc2c(c1)OCCO2` [Example 3, (S)-2-(tert-butoxy)-2-(5-(2,3-dihydrobenzo[b][1,4]dioxin-6-yl)-4-(4,4-dimethylpiperidin-1-yl)-2,6-dimethylpyridin-3-yl)acetic acid] came in with a 50% effective concentration (EC50) of 101 nM.
Next, `Cc1nc(C)c([C@H](OC(C)(C)C)C(=O)O)c(N2CCC(C)(C)CC2)c1-c1ccc2c(c1)CCN(Cc1cscn1)C2=O` [Example 17, (S)-2-(tert-butoxy)-2-(4-(4,4-dimethylpiperidin-1-yl)-2,6-dimethyl-5-(1-oxo-2-(thiazol-4-ylmethyl)-1,2,3,4-tetrahydroisoquinolin-6-yl)pyridin-3-yl)acetic acid]: 24 nM.

By EC50 is commonly meant the midpoint of the concentration-response curve. A higher EC50 goes with weaker potency.
